# In patent publication US20230111310A1, “CARBOXYLIC ACID DERIVATIVE-SUBSTITUTED IMINO ARYL COMPOUND, PREPARATION METHOD THEREFOR, HERBICIDAL COMPOSITION AND USE THEREOF” (Qingdao Kingagroot Chemical Compound Co., Ltd., priority 2020, published 2023):
# Tested on: Echinochloa crusgalli
# Test: Weeding effect in post-emergence stage
# Format: in vivo
# Settings: Dose 15 g/ha; fresh weight control rate level
# Outline: (§1)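 Seeds are sown in soil-filled pots under 0.5-2 cm soil and grown 2 weeks in greenhouse. Plants at 2-3 leaves are sprayed with compound (acetone, Tween 80, 1.5 liter/ha methyl oleate EC, water) at 7.5 to 500 g/ha. Damage is rated 3 weeks later, averaging three repeats.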
row,SMILES,"Weeding effect in post-emergence stage, Echinochloa crusgalli (level)"
1,C[C@@H](O/N=C/c1cc(-n2c(=O)cc(C(F)(F)F)n(C)c2=O)c(F)cc1Cl)C(=O)OCc1ccc(Cl)nc1 [495(R)],5 (Level 5: growth control rate is above 85%)
2,C[C@@H](O/N=C/c1cc(-n2c(=O)cc(C(F)(F)F)n(C)c2=O)c(F)cc1Cl)C(=O)OCCC1OCCO1 [498(R)],5 (Level 5: growth control rate is above 85%)
3,C[C@@H](O/N=C/c1cc(-n2c(=O)cc(C(F)(F)F)n(C)c2=O)c(F)cc1Cl)C(N)=O [499(R)],5 (Level 5: growth control rate is above 85%)
4,C/C(Cl)=C/COC(=O)[C@@H](C)O/N=C/c1cc(-n2c(=O)cc(C(F)(F)F)n(C)c2=O)c(F)cc1Cl [500(R)],5 (Level 5: growth control rate is above 85%)
5,C=C(Cl)COC(=O)[C@@H](C)O/N=C/c1cc(-n2c(=O)cc(C(F)(F)F)n(C)c2=O)c(F)cc1Cl [501(R)],5 (Level 5: growth control rate is above 85%)
6,CCN(CC)C(=O)[C@@H](C)O/N=C/c1cc(-n2c(=O)cc(C(F)(F)F)n(C)c2=O)c(F)cc1Cl [502(R)],5 (Level 5: growth control rate is above 85%)
7,C[C@@H](O/N=C/c1cc(-n2c(=O)cc(C(F)(F)F)n(C)c2=O)c(F)cc1Cl)C(=O)NS(=O)(=O)CCl [503(R)],5 (Level 5: growth control rate is above 85%)

# Tested on: Digitaria sanguinalis
# Test: Weeding effect in post-emergence stage
# Format: in vivo
# Settings: Dose 15 g/ha; fresh weight control rate level
# Outline: as §1
row,SMILES,"Weeding effect in post-emergence stage, Digitaria sanguinalis (level)"
1,C[C@@H](O/N=C/c1cc(-n2c(=O)cc(C(F)(F)F)n(C)c2=O)c(F)cc1Cl)C(=O)OCc1ccc(Cl)nc1 [495(R)],5 (Level 5: growth control rate is above 85%)
2,C[C@@H](O/N=C/c1cc(-n2c(=O)cc(C(F)(F)F)n(C)c2=O)c(F)cc1Cl)C(=O)OCCC1OCCO1 [498(R)],5 (Level 5: growth control rate is above 85%)
3,C[C@@H](O/N=C/c1cc(-n2c(=O)cc(C(F)(F)F)n(C)c2=O)c(F)cc1Cl)C(N)=O [499(R)],5 (Level 5: growth control rate is above 85%)
4,C/C(Cl)=C/COC(=O)[C@@H](C)O/N=C/c1cc(-n2c(=O)cc(C(F)(F)F)n(C)c2=O)c(F)cc1Cl [500(R)],5 (Level 5: growth control rate is above 85%)
5,C=C(Cl)COC(=O)[C@@H](C)O/N=C/c1cc(-n2c(=O)cc(C(F)(F)F)n(C)c2=O)c(F)cc1Cl [501(R)],5 (Level 5: growth control rate is above 85%)
6,CCN(CC)C(=O)[C@@H](C)O/N=C/c1cc(-n2c(=O)cc(C(F)(F)F)n(C)c2=O)c(F)cc1Cl [502(R)],5 (Level 5: growth control rate is above 85%)
7,C[C@@H](O/N=C/c1cc(-n2c(=O)cc(C(F)(F)F)n(C)c2=O)c(F)cc1Cl)C(=O)NS(=O)(=O)CCl [503(R)],5 (Level 5: growth control rate is above 85%)

# Tested on: Setaria viridis
# Test: Weeding effect in post-emergence stage
# Format: in vivo
# Settings: Dose 15 g/ha; fresh weight control rate level
# Outline: as §1
row,SMILES,"Weeding effect in post-emergence stage, Setaria viridis (level)"
1,C[C@@H](O/N=C/c1cc(-n2c(=O)cc(C(F)(F)F)n(C)c2=O)c(F)cc1Cl)C(=O)OCc1ccc(Cl)nc1 [495(R)],5 (Level 5: growth control rate is above 85%)
2,C[C@@H](O/N=C/c1cc(-n2c(=O)cc(C(F)(F)F)n(C)c2=O)c(F)cc1Cl)C(=O)OCCC1OCCO1 [498(R)],5 (Level 5: growth control rate is above 85%)
3,C[C@@H](O/N=C/c1cc(-n2c(=O)cc(C(F)(F)F)n(C)c2=O)c(F)cc1Cl)C(N)=O [499(R)],5 (Level 5: growth control rate is above 85%)
4,C/C(Cl)=C/COC(=O)[C@@H](C)O/N=C/c1cc(-n2c(=O)cc(C(F)(F)F)n(C)c2=O)c(F)cc1Cl [500(R)],5 (Level 5: growth control rate is above 85%)
5,C=C(Cl)COC(=O)[C@@H](C)O/N=C/c1cc(-n2c(=O)cc(C(F)(F)F)n(C)c2=O)c(F)cc1Cl [501(R)],5 (Level 5: growth control rate is above 85%)
6,CCN(CC)C(=O)[C@@H](C)O/N=C/c1cc(-n2c(=O)cc(C(F)(F)F)n(C)c2=O)c(F)cc1Cl [502(R)],5 (Level 5: growth control rate is above 85%)
7,C[C@@H](O/N=C/c1cc(-n2c(=O)cc(C(F)(F)F)n(C)c2=O)c(F)cc1Cl)C(=O)NS(=O)(=O)CCl [503(R)],5 (Level 5: growth control rate is above 85%)

# Tested on: Alopecurus japonicus
# Test: Weeding effect in post-emergence stage
# Format: in vivo
# Settings: Dose 15 g/ha; fresh weight control rate level
# Outline: as §1
row,SMILES,"Weeding effect in post-emergence stage, Alopecurus japonicus (level)"
1,C[C@@H](O/N=C/c1cc(-n2c(=O)cc(C(F)(F)F)n(C)c2=O)c(F)cc1Cl)C(=O)OCc1ccc(Cl)nc1 [495(R)],5 (Level 5: growth control rate is above 85%)
2,C[C@@H](O/N=C/c1cc(-n2c(=O)cc(C(F)(F)F)n(C)c2=O)c(F)cc1Cl)C(=O)OCCC1OCCO1 [498(R)],5 (Level 5: growth control rate is above 85%)
3,C[C@@H](O/N=C/c1cc(-n2c(=O)cc(C(F)(F)F)n(C)c2=O)c(F)cc1Cl)C(N)=O [499(R)],5 (Level 5: growth control rate is above 85%)
4,C/C(Cl)=C/COC(=O)[C@@H](C)O/N=C/c1cc(-n2c(=O)cc(C(F)(F)F)n(C)c2=O)c(F)cc1Cl [500(R)],5 (Level 5: growth control rate is above 85%)
5,C=C(Cl)COC(=O)[C@@H](C)O/N=C/c1cc(-n2c(=O)cc(C(F)(F)F)n(C)c2=O)c(F)cc1Cl [501(R)],5 (Level 5: growth control rate is above 85%)
6,CCN(CC)C(=O)[C@@H](C)O/N=C/c1cc(-n2c(=O)cc(C(F)(F)F)n(C)c2=O)c(F)cc1Cl [502(R)],5 (Level 5: growth control rate is above 85%)
7,C[C@@H](O/N=C/c1cc(-n2c(=O)cc(C(F)(F)F)n(C)c2=O)c(F)cc1Cl)C(=O)NS(=O)(=O)CCl [503(R)],5 (Level 5: growth control rate is above 85%)

# Tested on: Abutilon theophrasti
# Test: Weeding effect in post-emergence stage
# Format: in vivo
# Settings: Dose 15 g/ha; fresh weight control rate level
# Outline: as §1
row,SMILES,"Weeding effect in post-emergence stage, Abutilon theophrasti (level)"
1,C[C@@H](O/N=C/c1cc(-n2c(=O)cc(C(F)(F)F)n(C)c2=O)c(F)cc1Cl)C(=O)OCc1ccc(Cl)nc1 [495(R)],5 (Level 5: growth control rate is above 85%)
2,C[C@@H](O/N=C/c1cc(-n2c(=O)cc(C(F)(F)F)n(C)c2=O)c(F)cc1Cl)C(=O)OCCC1OCCO1 [498(R)],5 (Level 5: growth control rate is above 85%)
3,C[C@@H](O/N=C/c1cc(-n2c(=O)cc(C(F)(F)F)n(C)c2=O)c(F)cc1Cl)C(N)=O [499(R)],5 (Level 5: growth control rate is above 85%)
4,C/C(Cl)=C/COC(=O)[C@@H](C)O/N=C/c1cc(-n2c(=O)cc(C(F)(F)F)n(C)c2=O)c(F)cc1Cl [500(R)],5 (Level 5: growth control rate is above 85%)
5,C=C(Cl)COC(=O)[C@@H](C)O/N=C/c1cc(-n2c(=O)cc(C(F)(F)F)n(C)c2=O)c(F)cc1Cl [501(R)],5 (Level 5: growth control rate is above 85%)
6,CCN(CC)C(=O)[C@@H](C)O/N=C/c1cc(-n2c(=O)cc(C(F)(F)F)n(C)c2=O)c(F)cc1Cl [502(R)],5 (Level 5: growth control rate is above 85%)
7,C[C@@H](O/N=C/c1cc(-n2c(=O)cc(C(F)(F)F)n(C)c2=O)c(F)cc1Cl)C(=O)NS(=O)(=O)CCl [503(R)],5 (Level 5: growth control rate is above 85%)

# Tested on: Eleusine indica
# Test: Weeding effect in post-emergence stage
# Format: in vivo
# Settings: Dose 15 g/ha; fresh weight control rate level
# Outline: as §1
row,SMILES,"Weeding effect in post-emergence stage, Eleusine indica (level)"
1,C[C@@H](O/N=C/c1cc(-n2c(=O)cc(C(F)(F)F)n(C)c2=O)c(F)cc1Cl)C(=O)OCc1ccc(Cl)nc1 [495(R)],5 (Level 5: growth control rate is above 85%)
2,C[C@@H](O/N=C/c1cc(-n2c(=O)cc(C(F)(F)F)n(C)c2=O)c(F)cc1Cl)C(=O)OCCC1OCCO1 [498(R)],5 (Level 5: growth control rate is above 85%)
3,C[C@@H](O/N=C/c1cc(-n2c(=O)cc(C(F)(F)F)n(C)c2=O)c(F)cc1Cl)C(N)=O [499(R)],5 (Level 5: growth control rate is above 85%)
4,C/C(Cl)=C/COC(=O)[C@@H](C)O/N=C/c1cc(-n2c(=O)cc(C(F)(F)F)n(C)c2=O)c(F)cc1Cl [500(R)],5 (Level 5: growth control rate is above 85%)
5,C=C(Cl)COC(=O)[C@@H](C)O/N=C/c1cc(-n2c(=O)cc(C(F)(F)F)n(C)c2=O)c(F)cc1Cl [501(R)],5 (Level 5: growth control rate is above 85%)
6,CCN(CC)C(=O)[C@@H](C)O/N=C/c1cc(-n2c(=O)cc(C(F)(F)F)n(C)c2=O)c(F)cc1Cl [502(R)],5 (Level 5: growth control rate is above 85%)
7,C[C@@H](O/N=C/c1cc(-n2c(=O)cc(C(F)(F)F)n(C)c2=O)c(F)cc1Cl)C(=O)NS(=O)(=O)CCl [503(R)],5 (Level 5: growth control rate is above 85%)
